For this test, the target named is c-kit (Homo sapiens, UniProt P10721). Nature of the test: c-kit assays of Examples 40 and 41 (AlphaScreen kinase assays at 10 and 100 μM ATP, 33P-ATP filter assay, M-07e SCF-stimulated proliferation and phosphorylation). (In general: Bead proximity is the source of the signal in Alpha formats.)
Sequence of c-kit (P10721 with tags, fused parts or gaps): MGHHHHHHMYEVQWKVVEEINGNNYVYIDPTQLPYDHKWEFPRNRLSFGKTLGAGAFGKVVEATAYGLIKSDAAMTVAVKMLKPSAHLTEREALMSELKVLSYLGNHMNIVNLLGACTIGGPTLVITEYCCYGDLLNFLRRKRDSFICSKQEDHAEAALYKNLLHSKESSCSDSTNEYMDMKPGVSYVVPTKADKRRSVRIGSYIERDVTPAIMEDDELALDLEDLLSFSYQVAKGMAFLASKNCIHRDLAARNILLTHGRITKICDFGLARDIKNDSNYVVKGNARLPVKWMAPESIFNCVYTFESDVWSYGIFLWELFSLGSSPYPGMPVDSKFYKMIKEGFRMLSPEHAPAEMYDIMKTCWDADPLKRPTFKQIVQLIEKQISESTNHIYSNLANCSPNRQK

Usually IC50 stands for the midpoint of a concentration-inhibition curve. Read a high IC50 as weaker potency. `Fc1ccccc1CNc1ncc(Cc2c[nH]c3ncc(Cl)cc23)cn1` [P-0264, [5-(5-Chloro-1H-pyrrolo[2,3-b]pyridin-3-ylmethyl)-pyrimidin-2-yl]-(2-fluoro-benzyl)-amine]: the IC50 is under 1 µM.

In the case of `Fc1ccc(CNc2ncc(Cc3c[nH]c4ncc(Cl)cc34)cn2)c(F)c1` [P-0265, [5-(5-Chloro-1H-pyrrolo[2,3-b]pyridin-3-ylmethyl)-pyrimidin-2-yl]-(2,4-difluoro-benzyl)-amine], the IC50 is under 1 µM.

For the compound `FC(F)(F)c1ccc(CNc2ncc(Cc3c[nH]c4ncc(Cl)cc34)cn2)cc1` [P-0266, [5-(5-Chloro-1H-pyrrolo[2,3-b]pyridin-3-ylmethyl)-pyrimidin-2-yl]-(4-trifluoromethyl-benzyl)-amine], the IC50 was under 1 µM.

Regarding `Fc1ccc(F)c(CNc2ncc(Cc3c[nH]c4ncc(Cl)cc34)cn2)c1` [P-0267, [5-(5-Chloro-1H-pyrrolo[2,3-b]pyridin-3-ylmethyl)-pyrimidin-2-yl]-(2,5-difluoro-benzyl)-amine], the IC50 is under 1 µM.

Regarding `FC(F)(F)c1cccc(CNc2ncc(Cc3c[nH]c4ncc(Cl)cc34)cn2)c1` [P-0268, [5-(5-Chloro-1H-pyrrolo[2,3-b]pyridin-3-ylmethyl)-pyrimidin-2-yl]-(3-trifluoromethyl-benzyl)-amine], the IC50 is under 1 µM.

With `N#Cc1cnc2[nH]cc(Cc3ccc(NCc4ccc(C(F)(F)F)cc4)nc3)c2c1` [P-0269, 3-[6-(4-Trifluoromethyl-benzylamino)-pyridin-3-ylmethyl]-1H-pyrrolo[2,3-b]pyridine-5-carbonitrile], the IC50 is under 1 µM.

For `Fc1ccccc1CNc1ccc(Cc2c[nH]c3ncc(Cl)cc23)cn1` [P-0270, [5-(5-Chloro-1H-pyrrolo[2,3-b]pyridin-3-ylmethyl)-pyridin-2-yl]-(2-fluoro-benzyl)-amine], the IC50 is under 1 µM.

Turning to `N#Cc1cnc2[nH]cc(Cc3ccc(NCc4ccccc4F)nc3)c2c1` [P-0271, 3-[6-(2-Fluoro-benzylamino)-pyridin-3-ylmethyl]-1H-pyrrolo[2,3-b]pyridine-5-carbonitrile], the IC50 was under 1 µM.

With `Cc1cnc2[nH]cc(Cc3ccc(NCc4ccccc4F)nc3)c2c1` [P-0272, (2-Fluoro-benzyl)-[5-(5-methyl-1H-pyrrolo[2,3-b]pyridin-3-ylmethyl)-pyridin-2-yl]-amine], the IC50 was under 1 µM.

Consider `N#Cc1cnc2[nH]cc(Cc3ccc(NCc4ccc(C(F)(F)F)nc4)nc3)c2c1` [P-0273, 3-{6-[(6-Trifluoromethyl-pyridin-3-ylmethyl)-amino]-pyridin-3-ylmethyl}-1H-pyrrolo[2,3-b]pyridine-5-carbonitrile], for which the IC50 is under 1 µM.

For `N#Cc1cnc2[nH]cc(Cc3ccc(NCc4ccccc4C(F)(F)F)nc3)c2c1` [P-0274, 3-[6-(2-Trifluoromethyl-benzylamino)-pyridin-3-ylmethyl]-1H-pyrrolo[2,3-b]pyridine-5-carbonitrile], the IC50 was under 1 µM.

In turn, `FC(F)(F)c1ccccc1CNc1ccc(Cc2c[nH]c3ncc(Cl)cc23)cn1` [P-0275, [5-(5-Chloro-1H-pyrrolo[2,3-b]pyridin-3-ylmethyl)-pyridin-2-yl]-(2-trifluoromethyl-benzyl)-amine] displayed an IC50 of under 1 µM.

The compound `Cc1cnc2[nH]cc(Cc3ccc(NCc4ccccc4C(F)(F)F)nc3)c2c1` [P-0276, [5-(5-Methyl-1H-pyrrolo[2,3-b]pyridin-3-ylmethyl)-pyridin-2-yl]-(2-trifluoromethyl-benzyl)-amine] registered an IC50 of under 1 µM.

`N#Cc1cnc2[nH]cc(Cc3ccc(NCc4c(F)cccc4F)nc3)c2c1` [P-0277, 3-[6-(2,6-Difluoro-benzylamino)-pyridin-3-ylmethyl]-1H-pyrrolo[2,3-b]pyridine-5-carbonitrile] displayed an IC50 of under 1 µM.

`Fc1cccc(F)c1CNc1ccc(Cc2c[nH]c3ncc(Cl)cc23)cn1` [P-0278, [5-(5-Chloro-1H-pyrrolo[2,3-b]pyridin-3-ylmethyl)-pyridin-2-yl]-(2,6-difluoro-benzyl)-amine] came in with an IC50 of under 1 µM.

`Cc1cnc2[nH]cc(Cc3ccc(NCc4ccccc4Cl)nc3)c2c1` [P-0279, (2-Chloro-benzyl)-[5-(5-methyl-1H-pyrrolo[2,3-b]pyridin-3-ylmethyl)-pyridin-2-yl]-amine]: the IC50 is under 1 µM.

On to `Clc1cnc2[nH]cc(Cc3ccc(NCc4ccccc4Cl)nc3)c2c1` [P-0280, (2-Chloro-benzyl)-[5-(5-chloro-1H-pyrrolo[2,3-b]pyridin-3-ylmethyl)-pyridin-2-yl]-amine], for which the IC50 is under 1 µM.

Take `N#Cc1cnc2[nH]cc(Cc3ccc(NCc4ccccc4Cl)nc3)c2c1` [P-0281, 3-[6-(2-Chloro-benzylamino)-pyridin-3-ylmethyl]-1H-pyrrolo[2,3-b]pyridine-5-carbonitrile]: the IC50 is under 1 µM.

Take `COc1ccc(CNc2ccc(Cc3c[nH]c4ncc(C)cc34)cn2)cn1` [P-0282, (6-Methoxy-pyridin-3-ylmethyl)-[5-(5-methyl-1H-pyrrolo[2,3-b]pyridin-3-ylmethyl)-pyridin-2-yl]-amine]: the IC50 was under 1 µM.

`COc1ccc(CNc2ccc(Cc3c[nH]c4ncc(Cl)cc34)cn2)cn1` [P-0283, [5-(5-Chloro-1H-pyrrolo[2,3-b]pyridin-3-ylmethyl)-pyridin-2-yl]-(6-methoxy-pyridin-3-ylmethyl)-amine] had an IC50 of under 1 µM.

As for `COc1ccc(CNc2ccc(Cc3c[nH]c4ncc(C#N)cc34)cn2)cn1` [P-0284, 3-{6-[(6-Methoxy-pyridin-3-ylmethyl)-amino]-pyridin-3-ylmethyl}-1H-pyrrolo[2,3-b]pyridine-5-carbonitrile], the IC50 is under 1 µM.

In turn, `COc1ncccc1CNc1ccc(Cc2c[nH]c3ncc(C)cc23)cn1` [P-0285, (2-Methoxy-pyridin-3-ylmethyl)-[5-(5-methyl-1H-pyrrolo[2,3-b]pyridin-3-ylmethyl)-pyridin-2-yl]-amine] registered an IC50 of under 1 µM.

Regarding `COc1ncccc1CNc1ccc(Cc2c[nH]c3ncc(Cl)cc23)cn1` [P-0286, [5-(5-Chloro-1H-pyrrolo[2,3-b]pyridin-3-ylmethyl)-pyridin-2-yl]-(2-methoxy-pyridin-3-ylmethyl)-amine], the IC50 is under 1 µM.

The compound `COc1ncccc1CNc1ccc(Cc2c[nH]c3ncc(C#N)cc23)cn1` [P-0287, 3-{6-[(2-Methoxy-pyridin-3-ylmethyl)-amino]-pyridin-3-ylmethyl}-1H-pyrrolo[2,3-b]pyridine-5-carbonitrile] returned an IC50 of under 1 µM.

With `CCOc1ccccc1CNc1ccc(Cc2c[nH]c3ncccc23)cn1` [P-0288, (2-Ethoxy-benzyl)-[5-(1H-pyrrolo[2,3-b]pyridin-3-ylmethyl)-pyridin-2-yl]-amine], the IC50 is under 1 µM.

Turning to `Fc1ccc(C(F)(F)F)cc1CNc1ncc(Cc2c[nH]c3ncc(Cl)cc23)cn1` [P-0289, [5-(5-Chloro-1H-pyrrolo[2,3-b]pyridin-3-ylmethyl)-pyrimidin-2-yl]-(2-fluoro-5-trifluoromethyl-benzyl)-amine], the IC50 is under 1 µM.

For the compound `Fc1ccc(CNc2ncc(Cc3c[nH]c4ncc(Cl)cc34)s2)cc1` [P-0290, [5-(5-Chloro-1H-pyrrolo[2,3-b]pyridin-3-ylmethyl)-thiazol-2-yl]-(4-fluoro-benzyl)-amine], the IC50 is under 1 µM.

These data come from US9487515B2, “Compounds modulating c-fms and/or c-kit activity and uses therefor” (Plexxikon Inc., priority 2006, dated 2016).
